This experiment deals with soybean Asian rust—Phakopsora pachyrhizi (PHAKPA). Briefly: Efficacy on soybean rust: greenhouse soybean plants sprayed, then inoculated with spore suspension. In kind it is in vivo, Phakopsora pachyrhizi on soybean plants. The conditions noted are these: pre-inoculation; for PHAKPA Control % 14 DAA: 14 days after application; for PHAKPA Control % 12 DAA: 12 days after application. The protocol:
Soybean plants were inoculated with an aqueous spore suspension of the fungal pathogen (soybean Asian rust—Phakopsora pachyrhizi) at 2 h and 24 h post compound application. Additionally, infected untreated plants with sporulating lesions were placed among the test pots throughout the duration of the tests. The soybean plants were propagated from seed in a greenhouse, at a density of 3 seeds per pot containing a sandy loam. The plants were sprayed at growth stage V2 to V3 (2-3 trifoliates developed) and subsequently inoculated with the pathogen at the time intervals indicated above. Following inoculation, the plants were maintained under conditions of high humidity and at 26° C. to support spore germination and host leaf colonization. Assessments were made 12-15 days after inoculation. Aliquots of a 10% SC formulation of Compound I were diluted into water to achieve spray solutions containing 25, 100 and 400 ppm of the active ingredient. The spray solutions were also supplemented with either Trycol 5941 or one of several alternative adjuvant chemistries. Treatment solutions were sprayed to run-off using a hand held sprayer.

The mark [1] stands for this setting: 400 ppm Compound I + Trycol 5941 0.2 % v/v.

Each structure is given as a SMILES string.

As for `COc1ccnc(C(=O)N[C@H]2COC(=O)[C@H](Cc3ccccc3)[C@@H](OC(=O)C(C)C)[C@H](C)OC2=O)c1OCOC(=O)C(C)C` [Compound I], the “PHAKPA Control % 14 DAA” value runs as follows: (25 ppm Compound I + Trycol 5941 0.2 % v/v) “D (1-25)”; (100 ppm Compound I + Trycol 5941 0.2 % v/v) “C (26-50)”; under setting [1], “A (76-100)”. Further, the “PHAKPA Control % 12 DAA” value (400 ppm Compound I + Agbem 0.2 % v/v) is “B (51-75)”; the “PHAKPA Control % 12 DAA” value (400 ppm Compound I + Agral 0.2 % v/v) was “B (51-75)”; the “PHAKPA Control % 12 DAA” value (400 ppm Compound I + Aterbane 0.2 % v/v) is recorded as “B (51-75)”; the “PHAKPA Control % 12 DAA” value (400 ppm Compound I + Joint 0.2 % v/v) was “A (76-100)”; the “PHAKPA Control % 12 DAA” value (400 ppm Compound I + Nimbus 0.2 % v/v) is “A (76-100)”; the “PHAKPA Control % 12 DAA” value under setting [1] is reported as “B (51-75)”. Further, under “400 ppm Compound I + Vegetable Oil 0.2 % v/v”, the “PHAKPA Control % 12 DAA” value is “A (76-100)”.

The record behind these values is patent publication US20130296372A1, “USE OF PRO-[…] UK-2A FOR CONTROL OF SOYBEAN RUST” (DOW AGROSCIENCES LLC, priority 2012, published 2013).
